Experimental data: the supplement of paper PMC10307832

Legend:
Assay in all cases: relative viability (nuclei count vs DMSO), 5 days (fraction); higher = more cells survive
AZD8055 + Foretinib = compound: COc1ccc(-c2ccc3c(N4CCOC[C@@H]4C)nc(N4CCOC[C@@H]4C)nc3n2)cc1CO [AZD8055] + COc1cc2c(Oc3ccc(NC(=O)C4(C(=O)Nc5ccc(F)cc5)CC4)cc3F)ccnc2cc1OCCCN1CCOCC1 [Foretinib] (partner 0.25 µM)
Summary of the method: (§1)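 The day after seeding in 1536-well plates, lung cancer cell lines were treated by pin tool with a single drug, or with a fixed anchor-drug dose together with five library-drug doses (not always all listed) in √10 steps. After 5 days, a combined fix-and-stain solution (final 0.05% Triton X-100, 1% formaldehyde, 1 ug/ml Hoechst) was added. Nuclei counted on 4× images gave relative viability as treated counts over vehicle counts, reported as the median of duplicate plates.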

AZD8055 + Luminespib = compound: COc1ccc(-c2ccc3c(N4CCOC[C@@H]4C)nc(N4CCOC[C@@H]4C)nc3n2)cc1CO [AZD8055] + CCNC(=O)c1noc(-c2cc(C(C)C)c(O)cc2O)c1-c1ccc(CN2CCOCC2)cc1 [Luminespib] (partner 0.01 µM)
Summary of the method: as §1

AZD8055 + Tozasertib = compound: COc1ccc(-c2ccc3c(N4CCOC[C@@H]4C)nc(N4CCOC[C@@H]4C)nc3n2)cc1CO [AZD8055] + Cc1cc(Nc2cc(N3CCN(C)CC3)nc(Sc3ccc(NC(=O)C4CC4)cc3)n2)n[nH]1 [Tozasertib] (partner 0.1 µM)
Summary of the method: as §1

AZD8055 + AZD7762 = compound: COc1ccc(-c2ccc3c(N4CCOC[C@@H]4C)nc(N4CCOC[C@@H]4C)nc3n2)cc1CO [AZD8055] + NC(=O)Nc1cc(-c2cccc(F)c2)sc1C(=O)N[C@H]1CCCNC1 [AZD7762] (partner 0.2 µM)
Summary of the method: as §1

Cell Line | relative viability (AZD8055 + Foretinib; first compound 0.01 µM) | relative viability (AZD8055 + Foretinib; first compound 0.03162 µM) | relative viability (AZD8055 + Foretinib; first compound 0.1 µM) | relative viability (AZD8055 + Foretinib; first compound 0.3162 µM) | relative viability (AZD8055 + Foretinib; first compound 1 µM) | relative viability (AZD8055 + Luminespib; first compound 0.01 µM) | relative viability (AZD8055 + Luminespib; first compound 0.03162 µM) | relative viability (AZD8055 + Luminespib; first compound 0.1 µM) | relative viability (AZD8055 + Luminespib; first compound 0.3162 µM) | relative viability (AZD8055 + Luminespib; first compound 1 µM) | relative viability (AZD8055 + Tozasertib; first compound 0.01 µM) | relative viability (AZD8055 + Tozasertib; first compound 0.03162 µM) | relative viability (AZD8055 + Tozasertib; first compound 0.1 µM) | relative viability (AZD8055 + Tozasertib; first compound 0.3162 µM) | relative viability (AZD8055 + Tozasertib; first compound 1 µM) | relative viability (AZD8055 + AZD7762; first compound 0.01 µM) | relative viability (AZD8055 + AZD7762; first compound 0.03162 µM) | relative viability (AZD8055 + AZD7762; first compound 0.1 µM) | relative viability (AZD8055 + AZD7762; first compound 0.3162 µM) | relative viability (AZD8055 + AZD7762; first compound 1 µM)
A549 | 0.929 | 0.831 | 0.638 | 0.123 | 0.0603 |  |  |  |  |  |  |  |  |  |  |  |  |  |  | 
COR-L23 | 1.24 | 0.893 | 0.822 | 0.353 | 0.233 | 0.773 | 0.625 | 0.381 | 0.118 | 0.137 | 0.278 | 0.295 | 0.228 | 0.15 | 0.154 |  |  |  |  | 
COR-L 105 | 1.55 | 1.03 | 1.31 | 0.756 | 0.476 | 0.733 | 0.912 | 0.349 | 0.3 | 0.268 | 0.326 | 0.354 | 0.304 | 0.282 | 0.27 |  |  |  |  | 
Calu-6 | 0.878 | 0.839 | 0.691 | 0.439 | 0.346 |  |  |  |  |  |  |  |  |  |  |  |  |  |  | 
EBC-1 | 0.102 | 0.126 | 0.116 | 0.114 | 0.127 |  |  |  |  |  |  |  |  |  |  |  |  |  |  | 
HCC-44 |  |  |  |  |  | 1.03 | 0.974 | 0.804 | 0.439 | 0.429 | 1.03 | 0.914 | 0.626 | 0.543 | 0.613 | 1.03 | 1.01 | 0.972 | 0.992 | 0.925
HCC-78 | 0.496 | 0.527 | 0.388 | 0.417 | 0.308 |  |  |  |  |  | 0.475 | 0.404 | 0.341 | 0.299 | 0.232 | 0.658 | 0.541 | 0.47 | 0.347 | 0.269
HCC-366 | 0.979 | 0.913 | 0.687 | 0.428 | 0.417 |  |  |  |  |  | 0.14 | 0.0951 | 0.0932 | 0.0432 | 0.0587 | 0.364 | 0.255 | 0.268 | 0.124 | 0.0821
IA-LM | 0.933 | 0.659 | 0.567 | 0.169 | 0.126 |  |  |  |  |  |  |  |  |  |  |  |  |  |  | 
NCI-H520 | 0.635 | 0.344 | 0.35 | 0.173 | 0.172 | 0.239 | 0.228 | 0.171 | 0.183 | 0.16 | 0.381 | 0.305 | 0.213 | 0.251 | 0.192 |  |  |  |  | 
NCI-H661 | 1.06 | 0.99 | 0.795 | 0.5 | 0.425 | 0.971 | 0.906 | 0.886 | 0.424 | 0.367 | 0.329 | 0.376 | 0.376 | 0.356 | 0.359 |  |  |  |  | 
NCI-H1299 | 1.19 | 1.18 | 1.14 | 0.863 | 0.528 |  |  |  |  |  |  |  |  |  |  |  |  |  |  | 
NCI-H1563 | 0.913 | 0.723 | 0.725 | 0.635 | 0.645 | 0.594 | 0.536 | 0.541 | 0.496 | 0.49 |  |  |  |  |  |  |  |  |  | 
NCI-H1648 |  |  |  |  |  |  |  |  |  |  | 0.461 | 0.702 | 0.34 | 0.232 | 0.226 | 0.708 | 0.804 | 0.639 | 0.413 | 0.261
NCI-H1650 | 0.998 | 1.02 | 0.886 | 0.778 | 0.449 | 0.204 | 0.196 | 0.206 | 0.203 | 0.253 | 0.366 | 0.446 | 0.422 | 0.534 | 0.252 |  |  |  |  | 
NCI-H1703 | 0.34 | 0.32 | 0.306 | 0.301 | 0.226 |  |  |  |  |  |  |  |  |  |  | 0.127 | 0.125 | 0.115 | 0.115 | 0.095
NCI-H1792 |  |  |  |  |  | 0.38 | 0.415 | 0.218 | 0.295 | 0.127 |  |  |  |  |  | 0.589 | 0.291 | 0.21 | 0.0685 | 0.0707
NCI-H2009 | 1.27 | 1.24 | 1.13 | 0.912 | 0.367 | 1.07 | 1.07 | 1.16 | 0.887 | 0.378 | 0.763 | 0.735 | 0.723 | 0.535 | 0.279 |  |  |  |  | 
NCI-H2023 | 0.787 | 0.817 | 0.654 | 0.26 | 0.126 | 0.591 | 0.411 | 0.138 | 0.1 | 0.128 | 0.314 | 0.325 | 0.258 | 0.115 | 0.109 |  |  |  |  | 
NCI-H2228 | 0.739 | 0.54 | 0.385 | 0.166 | 0.241 | 0.137 | 0.11 | 0.104 | 0.15 | 0.144 | 0.222 | 0.296 | 0.155 | 0.143 | 0.158 |  |  |  |  | 
SK-LU-1 | 0.784 | 0.627 | 0.427 | 0.258 | 0.212 | 0.205 | 0.185 | 0.159 | 0.145 | 0.154 | 0.311 | 0.333 | 0.287 | 0.217 | 0.213 |  |  |  |  | 
SK-MES-1 | 0.849 | 0.819 | 0.81 | 0.408 | 0.329 | 0.371 | 0.503 | 0.185 | 0.182 | 0.213 | 0.904 | 0.837 | 0.625 | 0.434 | 0.274 |  |  |  |  | 
SW 1573 | 0.86 | 0.645 | 0.803 | 0.516 | 0.251 | 0.121 | 0.256 | 0.167 | 0.103 | 0.187 | 0.174 | 0.229 | 0.241 | 0.155 | 0.135 |  |  |  |  | 
UMC-11 | 1 | 0.8 | 0.555 | 0.292 | 0.297 | 1 | 0.659 | 0.477 | 0.229 | 0.268 | 0.196 | 0.224 | 0.208 | 0.2 | 0.211 |  |  |  |  | 
